Biological target: Concanavalin A (Canavalia ensiformis, UniProt P02866)
Conditions: FIG. 5; complete library 2:1-6 and 2:A-I
Protocol: Concanavalin A and all reagents were obtained from common commercial sources (Lancaster, Fluka, Aldrich, Bachem, Sigma). […] The binding effect of the equilibrated mixtures was determined using competitive inhibition of enzyme-labelled concanavalin A, and were carried out using a Victor microtiter plate reader.
The complete library (CL) was designed to contain near equal amounts of each final species at a concentration of approximately 12 μM. The final solution contained 2.5 mM of each carbohydrate aldehyde (2:1-6), and varying amounts of hydrazides: 2:A, 70 μM; 2:B-E, 0.24 mM; 2:F, 0.42 mM; 2:G, 0.65 mM; 2:H, 0.88 mM; 2:I, 2.5 mM. The mixture was made in ammonium formate buffer at pH 4.0, and was equilibrated at ambient temperature for one week to ensure full reaction.
The different sublibraries (SL1-SLI) were prepared under identical conditions, where one component (2:1-6, 2:A-I) was removed from the mixture each time. Aliquots of the solution were subsequently taken out to test the inhibitory activity on Concanavalin A.

Compound: O=Cc1ccc(OC2OC(CO)C(O)C(O)C2O)cc1 (stereo not shown) [2:6]
- effect on Con A binding when the component is removed from the complete library: largest effects

Reference: US20040029172A1, “Generation of combinatorial libraries and assessment thereof by deconvolution” (priority 2000, published 2004)
